According to US7276512B2, “Benzo[a]pyrano[3,2-h]acridin-7-one compounds” (Les Laboratoires Servier, priority 2003, dated 2007):

Columns and labels:
L1210 murine leukaemia = assay: In vitro cytotoxicity, Microculture Tetrazolium Assay, L1210; type: cell-based; settings: L1210, 2 days incubation; read-out: IC50 (concentration which inhibits proliferation of the treated cells by 50%)
Description: (§1) Four cell lines were used: • 1 murine leukaemia: L1210, • 1 human epidermoid carcinoma: KB-3-1, • 1 human colon carcinoma: HT29, • 1 human prostate carcinoma: LNCap.
(§2) The cells are cultured in RPMI 1640 complete culture medium containing 10% foetal calf serum, 2 mM glutamine, 50 units/ml of penicillin, 50 μg/ml of streptomycin and 10 mM Hepes, pH=7.4. The cells are distributed on microplates and are exposed to the cytotoxic compounds. The cells are then incubated for 2 days (L1210) or 4 days (human lines). The number of viable cells is then quantified by a colorimetric assay, the Microculture Tetrazolium Assay (Cancer Res. 1987, 47, 939-942). The results are expressed in terms of the IC50 (the concentration of cytotoxic agent which inhibits proliferation of the treated cells by 50%).

[1] = system: KB-3-1 human epidermoid carcinoma; assay: In vitro cytotoxicity, Microculture Tetrazolium Assay, KB-3-1; type: cell-based; settings: KB-3-1, 4 days incubation; read-out: IC50 (concentration which inhibits proliferation of the treated cells by 50%)
Description: as §1, §2

[2] = system: HT29 human colon carcinoma; assay: In vitro cytotoxicity, Microculture Tetrazolium Assay, HT29; type: cell-based; settings: HT-29, 4 days incubation; read-out: IC50 (concentration which inhibits proliferation of the treated cells by 50%)
Description: as §1, §2

[3] = system: LNCap human prostate carcinoma; assay: In vitro cytotoxicity, Microculture Tetrazolium Assay, LNCap; type: cell-based; settings: 4 days incubation, read-out: IC50 (concentration which inhibits proliferation of the treated cells by 50%)
Description: as §1, §2

[4] = system: C38 adenocarcinoma of the colon; assay: Anti-tumour activity with respect to C38 adenocarcinoma of the colon; type: in vivo; settings: i.v. on days 12 and 22, s.c. C38 in B6D2F1 mice
Description: Anti-Tumour Activity with Respect to C38 Adenocarcinoma of the Colon
Tumour fragments of C38 adenocarcinoma of the colon weighing approximately 30 mg were implanted under the skin of B6D2F1 mice (Iffa Credo, France) on day 0. After growth of the tumour, the mice were divided into control (18 animals) and treated (6 or 7 animals) groups, which were homogeneous with respect to tumour size. The products were administered twice by the i.v. route on days 12 and 22, at their Maximum Tolerated Dose (MTD), MTD/2 and MTD/4.
The tumours were measured twice a week and the tumour volumes were calculated according to the following formula: volume (mm^3)=length (mm)×[…]/2.
The anti-tumour activity is expressed as % T/C: […]
V0 and Vt being the initial volume of the tumour and its volume at measurement time t, respectively.
The optimum dose is the dose giving the lowest T/C value without toxicity (early death or weight loss greater than 20%).

COc1cc2c(c3c1c(=O)c1c4ccccc4ccc1n3C)[C@@H](OC(C)=O)[C@@H](OC(C)=O)C(C)(C)O2 (racemic) [Example 5, (±)-cis-1,2-Diacetoxy-6-methoxy-3,3,14-trimethyl-1,2,3,14-tetrahydro-7H-benzo[α]pyrano[3,2-h]-acridin-7-one]
IC50 (L1210 murine leukaemia): 730 nM | IC50 [1]: 140 nM | IC50 [2]: 1180 nM | IC50 [3]: 570 nM | T/C ([4]; optimum dose of 4 mg/kg): 5% | inhibition of the tumour growth ([4]; optimum dose of 4 mg/kg): 95%

COc1cc2c(c3c1c(=O)c1c4ccccc4ccc1n3C)[C@H]1OC(=O)O[C@H]1C(C)(C)O2 (racemic) [Example 6, (±)-cis-7-Methoxy-4,4,15-trimethyl-15,15c-dihydro-4H-benzo[α][1,3]-dioxolo[4′,5′:4,5]pyrano[3,2-h]acridine-2,8[3aH]-dione]
IC50 (L1210 murine leukaemia): 60 nM | IC50 [1]: 15 nM

COc1cc2c(c3c1c(=O)c1ccccc1n3C)C=CC(C)(C)O2 [acronycine, reference compound]
T/C ([4]; optimum dose of 100 mg/kg): 27%
